Source: ChEMBL document CHEMBL1151429, “Novel drug resistance pattern associated with the mutations K70G and M184V in human immunodeficiency virus type 1 reverse transcriptase” (2007)

Key:
Format in all cases: functional
[1] = test system: Human immunodeficiency virus 1; experiment: Antiviral activity against HIV1 with reverse transcriptase K70E M184V and K70G M184V mutation by antivirogram biological cutoffs assay relative to wild type HIV1
[2] = test system: Human immunodeficiency virus 1; experiment: Ratio of IC50 for HIV1 with reverse transcriptase K70G/M184V mutation to IC50 for wild type HIV1
[3] = test system: Human immunodeficiency virus 1; experiment: Ratio of IC50 for HIV1 with reverse transcriptase K70E/M184V mutation to IC50 for wild type HIV1
[4] = test system: Human immunodeficiency virus 1; experiment: Ratio of IC50 for HIV1 with reverse transcriptase K70G mutation to IC50 for wild type HIV1
[5] = test system: Human immunodeficiency virus 1; experiment: Antiviral activity against HIV1 LAI with reverse transcriptase K70E mutation relative to wild type HIV1 LAI

SMILES	fold change (FC) [1]	Ratio IC50 [2]	Ratio IC50 [3]	Ratio IC50 [4]	fold change (FC) [5]
Cc1cn([C@H]2C=C[C@@H](CO)O2)c(=O)[nH]c1=O [STAVUDINE]	2.3	0.9	0.4	1.3	
Nc1ccn([C@@H]2CS[C@H](COP(=O)(O)OP(=O)(O)OP(=O)(O)O)O2)c(=O)n1 [LAMIVUDINE TRIPHOSPHATE]					3.5
O=c1[nH]cnc2c1ncn2[C@H]1CC[C@@H](CO)O1 [DIDANOSINE]	2.2	5.3	1.6	2.1	
C[C@H](Cn1cnc2c(N)ncnc21)OCP(=O)(O)O [TENOFOVIR ANHYDROUS]	2.1	1.5	1.7	1.9	
Nc1ccn([C@@H]2CS[C@H](CO)O2)c(=O)n1 [LAMIVUDINE]	2.4				
C[C@H](Cn1cnc2c(N)ncnc21)OCP(=O)(O)OP(=O)(O)OP(=O)(O)O					2.1
Nc1nc(=O)n([C@@H]2CS[C@H](CO)O2)cc1F [EMTRICITABINE]	3.5	>63.4	>40.8		
Cc1cn([C@H]2C[C@H](N=[N+]=[N-])[C@@H](CO)O2)c(=O)[nH]c1=O [ZIDOVUDINE]	2.7	<0.8	<0.3		
Nc1nc(=O)c2ncn([C@H]3C=C[C@@H](COP(=O)(O)OP(=O)(O)OP(=O)(O)O)C3)c2[nH]1 [CARBOVIR 5'-TRIPHOSPHATE, (-)-]					2.3
Nc1nc(NC2CC2)c2ncn([C@H]3C=C[C@@H](CO)C3)c2n1 [ABACAVIR]	2.2	3.2	1.3	2.1	
